This note sets out measurements from US11771738B2 (Zoetis Services LLC, priority 2018, dated 2023).

Series [1] concerns D. immitis L4 larvae. The experiment in a line: Dirofilaria immitis, L4 Stage (DiL4) In Vitro Assay. The class given is cell-based. The following applies: ratio of DiMf MED to DiL4 MED.
Series [2] relates to circulating microfilariae. Nature of the series: Heartworm Positive Dog Studies.
In series [3] the test system is circulating microfilariae. The following applies: dog, in vivo.

Where two headings read alike, the source gives them in different places.

As for `CC(C)C[C@H]1C(=O)O[C@H](Cc2ccc(N3CCOCC3)cc2)C(=O)N(C)[C@@H](CC(C)C)C(=O)O[C@H](C)C(=O)N(C)[C@@H](CC(C)C)C(=O)O[C@H](Cc2ccc(N3CCOCC3)cc2)C(=O)N(C)[C@@H](CC(C)C)C(=O)O[C@H](C)C(=O)N1C` [emodepside, Emodepside, reference compound], the “selectivity against D. immitis L4 (DiMf/DiL4)” value in series [1] amounted to 1 ×. For the same compound, the “adverse effects / clinical observations” value in series [2] (heartworm positive dogs, oral, emodepside 1 mg/kg, Example 3-9 3 mg/kg) is “all treated dogs exhibited adverse effects consistent with dead or dying circulating microfilariae”. Also, the “Mean MF/mL, Day 0, Post-dose, 2 hours” value in series [2] (heartworm positive dogs, oral, emodepside 1 mg/kg, Example 3-9 3 mg/kg, 2 hours post-dose, blood) was 8,300 MF/mL. Also, the “Mean MF/mL, Day 0 Pre-dose” value in series [2] (heartworm positive dogs, oral, emodepside 1 mg/kg, Example 3-9 3 mg/kg, Day 0 pre-dose, blood) is reported as 61,000 MF/mL. Further, the “Mean MF/mL, Day 1” value in series [2] (heartworm positive dogs, oral, emodepside 1 mg/kg, Example 3-9 3 mg/kg, Day 1, blood) was 4,500 MF/mL. The “Mean MF/mL, Day 7” value in series [2] (heartworm positive dogs, oral, emodepside 1 mg/kg, Example 3-9 3 mg/kg, Day 7, blood) was 8,800 MF/mL. The “% Reduction of MF, Day 0, Post-dose, 2 hours” value in series [2] (vs pre-dose (day 0) levels, oral, emodepside 1 mg/kg, Example 3-9 3 mg/kg, 2 hours post-dose) was 87%; in series [2] (vs pre-dose (day 0) levels, oral, emodepside 1 mg/kg, Example 3-9 3 mg/kg, 2 hours post-dose, listed as Emodepside), 87%. Further, in series [2] (vs pre-dose (day 0) levels, oral, emodepside 1 mg/kg, Example 3-9 3 mg/kg, Day 1), the “% Reduction of MF, Day 1” value stood at 93%. In series [2] (vs pre-dose (day 0) levels, oral, emodepside 1 mg/kg, Example 3-9 3 mg/kg, Day 7), the “% Reduction of MF, Day 7” value is given as 86%.
Turning to “(3S,6R,9S,12R,15S,18R,21S,24R)-6-benzyl-18-(4-(hydroxy(6-methoxypyridin-3-yl)methyl)benzyl)-3,9,15,21-tetraisobutyl-4,10,12,16,22,24-hexamethyl-1,7,13,19-tetraoxa-4,10,16,22-tetraazacyclotetracosan-2,5,8,11,14,17,20,23-octaone [Example 3-9]”, in series [3], the “adverse effects / clinical observations” value is given as “no adverse effects observed”. Also, in series [2] (dog, in vivo), the “% Reduction of MF, Day 0, Post-dose, 2 hours” value is recorded as −11%; the “% Reduction of MF, Day 1” value is −28%; the “% Reduction of MF, Day 7” value is recorded as −50%; the “Mean MF/mL, Day 0, Post-dose, 2 hours” value is 20,000 MF/mL. Further, in series [2] (dog, in vivo), the “Mean MF/mL, Day 0 Pre-dose” value is 18,000 MF/mL; the “Mean MF/mL, Day 1” value is reported as 23,000 MF/mL; the “Mean MF/mL, Day 7” value is 25,000 MF/mL. In series [2] (dog, in vivo, po, 3 mg/kg), the “% Reduction of MF, Day 14” value is recorded as −22%; the “% Reduction of MF, Day 21” value is reported as −33%; the “Mean MF/mL, Day 14” value was 22,000 MF/mL; the “Mean MF/mL, Day 21” value is 24,000 MF/mL.
